From US10189828B2, “1-methylpyrazole-piperazine compounds having multimodal activity against pain” (LABORATORIOS DEL DR. ESTEVE S.A., priority 2014, dated 2019)

Tested on: human σ1 receptor and human μ-opioid receptor
Assay: μ and σ1 dual binding: human σ1 receptor radioligand assay ([3H](+)-pentazocine, transfected HEK-293 membranes) and human μ-opioid receptor radioligand assay ([3H]-DAMGO, transfected CHO-K1 membranes)
Design: key to μ and σ1 dual binding: +: Both Ki-μ and Ki-σ1>=500 nM; ++: One Ki<500 nM while the other Ki is >=500 nM; +++: Both Ki-μ and Ki-σ1<500 nM; ++++: Both Ki-μ and Ki-σ1<100 nM
Conditions: for Ki: one combined class for Ki-μ and Ki-σ1

Row | Structure (SMILES) | μ and σ1 dual binding | Ki
1 | Cn1nccc1C(c1ccc(F)cn1)N1CCN(CCc2ncccc2Cl)CC1 (stereo not drawn) [Example 43, 1-(2-(3-chloropyridin-2-yl)ethyl)-4-((5-fluoropyridin-2-yl)(1-methyl-1H-pyrazol-5-yl)methyl)piperazine] | ++ | –
2 | Cn1nccc1C(c1ccccc1)N1CCN(CCc2cccc(NS(C)(=O)=O)n2)CC1 (stereo not drawn) [Example 44, N-(6-(2-(4-((1-methyl-1H-pyrazol-5-yl)(phenyl)methyl)piperazin-1-yl)ethyl)pyridin-2-yl)methanesulfonamide] | – | ≥ 500 nM
3 | Cn1nccc1C(c1ccccc1)N1CCN(CCc2cccc(N(S(C)(=O)=O)S(C)(=O)=O)n2)CC1 (stereo not drawn) [Example 45, N-(6-(2-(4-((1-methyl-1H-pyrazol-5-yl)(phenyl)methyl)piperazin-1-yl)ethyl)pyridin-2-yl)-N-(methylsulfonyl)methanesulfonamide] | – | ≥ 500 nM
